# Experimental data from US20060235076A1, “Medicinal composition for treating infection with drug-resistant staphylococcus aureus” (priority 2003, published 2006).
# Where two headings read alike, the source gives them in different places.
# Experiments:
# Type in all cases: cell-based, Staphylococcus aureus
# [1] = tested on: MRSA COL and MRSA Strain No. 5; experiment: Potentiating effect of various gallates for antibacterial activity of oxacillin (MIC by broth microdilution method and FIC); details: for FIC value: combination with oxacillin
# Procedure, shortened: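 Broth microdilution MIC per Japan Society of Chemotherapy method in cation-adjusted Mueller-Hinton broth (50 mg/l Ca, 25 mg/l Mg, 2% NaCl); inoculum 5×10^5 CFU/well from overnight 37° C culture. Gallate–oxacillin combinations evaluated by FIC.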
# [2] = tested on: MRSA and MSSA; experiment: Enhancing activity for the antibacterial activity of oxacillin by various gallates (agar plate dilution method, oxacillin MIC); details: MRSA and MSSA
# Experimental: (§1) According to the agar plate dilution method defined by Japan Society of Chemotherapy, MIC (Minimum inhibitory concentration) was determined. CAMHA was prepared by adding 50 mg/l of Ca-ion, 25 mg/l of Mg-ion, and 2% of NaCl to Mueller-Hinton II Agar (MHA), and it was used as a medium for use in the measurement of sensitivity. The bacterial liquid was incubated at 37° C. overnight and diluted to 10^6 CFU/ml with saline.
# [3] = tested on: MRSA and MSSA; experiment: Antibacterial activity of gallic acid, various gallates and multivalent phenol derivatives alone (agar plate dilution method, MIC); details: Staphylococcus aureus
# Procedure, shortened: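 Each compound tested alone. Bacteria cultured overnight at 37 °C, then brought to 10^6 CFU/ml in saline and tested on MHA II with added Ca-ion (50 mg/l), Mg-ion (25 mg/l) and 2% NaCl. MIC read by the Japan Society of Chemotherapy agar dilution method.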
# [4] = tested on: MRSA; experiment: Potentiating effect of isoamyl gallate for the antibacterial activity of other β-lactams (agar plate dilution method, MIC)
# Experimental: as §1
# [5] = COL, compound alone, read-out: MIC
# [6] = MRSA #1, compound alone, read-out: MIC
# [7] = MRSA #2, compound alone, read-out: MIC
# [8] = MRSA #3, compound alone, read-out: MIC
# [9] = MRSA #4, compound alone, read-out: MIC
# [10] = MRSA #5, compound alone, read-out: MIC
# [11] = MRSA #6, compound alone, read-out: MIC
# [12] = MRSA #7, compound alone, read-out: MIC
# [13] = MRSA #8, compound alone, read-out: MIC
# [14] = MRSA #9, compound alone, read-out: MIC
# [15] = MRSA #10, compound alone, read-out: MIC
# [16] = MRSA #12, compound alone, read-out: MIC
# [17] = MRSA #16, compound alone, read-out: MIC
# [18] = MRSA #17, compound alone, read-out: MIC
# [19] = MRSA #18, compound alone, read-out: MIC
# [20] = MRSA #20, compound alone, read-out: MIC
# [21] = MRSA #21, compound alone, read-out: MIC
# [22] = MRSA #22, compound alone, read-out: MIC
# [23] = MRSA #24, compound alone, read-out: MIC
# [24] = MSSA #1003, compound alone, read-out: MIC
# [25] = MSSA #1010, compound alone, read-out: MIC
# [26] = MSSA #1020, compound alone, read-out: MIC
# [27] = MSSA #1023, compound alone, read-out: MIC
# [28] = MSSA #1029, compound alone, read-out: MIC
# [29] = MSSA #1032, compound alone, read-out: MIC
# [30] = RN4220, with isoamyl gallate 25 mg/ml
structure (smiles),measurement,setting,value
"CC(C)COC(=O)c1cc(O)c(O)c(O)c1 [isoButyl gallate, isobutyl gallate]",effect of the combination use with oxacillin by FIC values,[1]; COL Strain and Strain No. 5,most potent effect of the combination use
same,FIC value,[1]; MRSA COL,0.129
same,FIC value,[1]; MRSA Strain No. 5,0.266
same,effect of combination use with oxacillin (words),[2],potent effects of the combination use
same,MIC50,[3],125 µg/mL
same,MIC,[3]; ATCC 6538 / MRSA / MSSA,125 µg/mL
same,MIC,[3]; [5],125 µg/mL
same,MIC,[3]; [6],125 µg/mL
same,MIC,[3]; [7],62.5 µg/mL
same,MIC,[3]; [8],125 µg/mL
same,MIC,[3]; [9],125 µg/mL
same,MIC,[3]; [10],125 µg/mL
same,MIC,[3]; [11],62.5 µg/mL
same,MIC,[3]; [12],125 µg/mL
same,MIC,[3]; [13],125 µg/mL
same,MIC,[3]; [14],62.5 µg/mL
same,MIC,[3]; [15],62.5 µg/mL
same,MIC,[3]; [16],125 µg/mL
same,MIC,[3]; [17],125 µg/mL
same,MIC,[3]; [18],125 µg/mL
same,MIC,[3]; [19],125 µg/mL
same,MIC,[3]; [20],125 µg/mL
same,MIC,[3]; [21],125 µg/mL
same,MIC,[3]; [22],125 µg/mL
same,MIC,[3]; [23],125 µg/mL
same,MIC,[3]; [24],125 µg/mL
same,MIC,[3]; [25],125 µg/mL
same,MIC,[3]; [26],125 µg/mL
same,MIC,[3]; [27],125 µg/mL
same,MIC,[3]; [28],62.5 µg/mL
same,MIC,[3]; [29],125 µg/mL
"CC(C)CCOC(=O)c1cc(O)c(O)c(O)c1 [isoAmyl gallate, Isoamyl gallate]",FIC value,[1]; MRSA COL,0.25
same,FIC value,[1]; MRSA Strain No. 5,0.313
same,effect of combination use with oxacillin (words),[2],potent effects of the combination use
same,MIC50,[3],62.5 µg/mL
same,MIC,[3]; ATCC 6538 / MRSA / MSSA,62.5 µg/mL
same,MIC,[3]; [5],62.5 µg/mL
same,MIC,[3]; [6],62.5 µg/mL
same,MIC,[3]; [7],62.5 µg/mL
same,MIC,[3]; [8],62.5 µg/mL
same,MIC,[3]; [9],62.5 µg/mL
same,MIC,[3]; [10],62.5 µg/mL
same,MIC,[3]; [11],62.5 µg/mL
same,MIC,[3]; [12],62.5 µg/mL
same,MIC,[3]; [13],62.5 µg/mL
same,MIC,[3]; [14],62.5 µg/mL
same,MIC,[3]; [15],31.3 µg/mL
same,MIC,[3]; [16],62.5 µg/mL
same,MIC,[3]; [17],62.5 µg/mL
same,MIC,[3]; [18],62.5 µg/mL
same,MIC,[3]; [19],62.5 µg/mL
same,MIC,[3]; [20],62.5 µg/mL
same,MIC,[3]; [21],62.5 µg/mL
same,MIC,[3]; [22],125 µg/mL
same,MIC,[3]; [23],125 µg/mL
same,MIC,[3]; [24],125 µg/mL
same,MIC,[3]; [25],62.5 µg/mL
same,MIC,[3]; [26],62.5 µg/mL
same,MIC,[3]; [27],62.5 µg/mL
same,MIC,[3]; [28],62.5 µg/mL
same,MIC,[3]; [29],62.5 µg/mL
same,Ampicillin MIC,[4]; [30],63 µg/mL
same,Cefapirin MIC,[4]; [30],63 µg/mL
same,effects of the combination use with other β-lactams,"[4]; with penicillin G, cefoxitin, ampicillin, and cefapirin",excellent effects of the combination use
